These are literature values, as cited in US20250268834A1, “IONIC LIQUID SALTS OF ACTIVE PHARMACEUTICAL INGREDIENTS” (GlaxoSmithKline Consumer Healthcare Holdings (US) LLC, priority 2021, published 2025).

Molecules are shown by their SMILES.

For the data set the following is noted: hydrolysis of amide to 4-aminophenol in liquids.

Take `CC(=O)Nc1ccc(O)cc1` [APAP, acetaminophen]: the “pH with lowest hydrolysis levels of APAP” value is recorded as 5-6.
